As usually defined, the solubility is the dissolved amount per volume that the medium holds. Low readings indicate a poorly soluble substance, high ones a readily soluble substance.

The results in this text go back to article PMC3432147 (Bioorganic & medicinal chemistry letters, 2012).

Data set [1] is described as follows: In vitro metabolic stability in human liver microsomes. As to conditions: for Stability (% remaining): human liver microsomal protein 0.125 mg, NADPH generating system, 37°C, 60 min, parent by LC-MS/MS, triplicate; for fold improved metabolic stability compared to compound 6: versus compound 6; for fold lower stability compared to compound 13: versus compound 13. On the technique in general: Liver microsomes are a subcellular fraction often used to study metabolism.

A short description of data set [2]: Solubility in water. As to conditions: for fold improved water solubility compared to alkyl substituted inhibitors (4 or 6): versus compounds 4 or 6. Format: physicochemical.
In data set [3] the target is T1, Human sEH (Homo sapiens, UniProt P34913).
T1 sequence (P34913 1-555): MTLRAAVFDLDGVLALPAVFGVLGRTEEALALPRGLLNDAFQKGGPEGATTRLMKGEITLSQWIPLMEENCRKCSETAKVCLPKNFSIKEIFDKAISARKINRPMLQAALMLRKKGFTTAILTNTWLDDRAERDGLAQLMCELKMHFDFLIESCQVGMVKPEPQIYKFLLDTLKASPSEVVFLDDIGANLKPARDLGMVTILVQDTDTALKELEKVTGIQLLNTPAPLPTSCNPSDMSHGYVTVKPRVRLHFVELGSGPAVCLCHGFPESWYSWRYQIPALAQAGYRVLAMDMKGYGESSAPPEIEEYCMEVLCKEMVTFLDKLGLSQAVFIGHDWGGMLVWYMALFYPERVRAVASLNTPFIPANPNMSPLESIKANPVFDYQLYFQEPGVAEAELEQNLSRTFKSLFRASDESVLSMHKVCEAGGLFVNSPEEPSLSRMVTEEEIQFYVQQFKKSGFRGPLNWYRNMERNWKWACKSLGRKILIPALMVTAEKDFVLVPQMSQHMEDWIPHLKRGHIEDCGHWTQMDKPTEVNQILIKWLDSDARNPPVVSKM
Nature of the data set: Inhibition of human sEH, fluorescent substrate assay. The format is biochemical.

≈ marks a conversion by molar mass, not a printed value.

Turning to `O=C(O)CCCNC(=O)NC12CC3CC(CC(C3)C1)C2` [Compound 3, 4-(3-adamantan-1-yl-ureido)-butyric acid], the “Stability (% remaining)” value in data set [1] was determined as 97 % remaining. For the same compound, the “parent acid determined after microsomal incubation” value in data set [1] (human liver microsomes) was greater than 95%. This compound had a solubility at 24 h in data set [2] (sodium phosphate buffer, pH 7.4) of 7 µg/mL (≈ 25 µM).

Turning to `CCCCCOC(=O)CCCNC(=O)NC12CC3CC(CC(C3)C1)C2` [Compound 4], the “Stability (% remaining)” value in data set [1] was less than 1 % remaining. The “metabolism in human liver microsomal incubation” value in data set [1] (human liver microsomes) is “all metabolized to the corresponding butyric acid”.

In the case of `CCCCC(C)OC(=O)CCCNC(=O)NC12CC3CC(CC(C3)C1)C2` (stereo not drawn) [Compound 5], in data set [3] (versus compound 4), the “fold improvement in inhibition potency compared to compound 4” value turned out to be 2.5 fold.

Take `CCCCC(CC)OC(=O)CCCNC(=O)NC12CC3CC(CC(C3)C1)C2` (stereo not drawn) [Compound 6]: the “Stability (% remaining)” value in data set [1] is reported as 4 % remaining.

On to `CCCCC(C#N)OC(=O)CCCNC(=O)NC12CC3CC(CC(C3)C1)C2` (stereo not drawn) [Compound 7], for which the “fold decrease in inhibition potency in comparison with methyl (5) or ethyl (6)” value in data set [3] (versus compounds 5 or 6) was determined as 3 fold.

For the compound `CCOCCOCCOC(=O)CCCNC(=O)NC12CC3CC(CC(C3)C1)C2` [Compound 8], the “Stability (% remaining)” value in data set [1] is 10 % remaining. Moreover, in data set [1] (human liver microsomes), the “fold improved metabolic stability compared to compound 6” value (from here on “fold improved metabolic stability”) is greater than 2.5 fold and the “fold lower stability compared to compound 13” value (“fold lower stability” below) is recorded as 3 fold. Also, in data set [3] (versus compounds 4, 5 and 6), the “fold reduction in inhibition compared to compounds 4, 5 and 6” value was 7–17 fold.

Take `CCOCCOCC(OC(=O)CCCNC(=O)NC12CC3CC(CC(C3)C1)C2)c1ccccc1` (stereo not drawn) [Compound 9]: in data set [1], the “Stability (% remaining)” value is on record as 14 % remaining. Further, in data set [1] (human liver microsomes), the “fold improved metabolic stability” value is given as greater than 2.5 fold and the “fold lower stability” value is on record as roughly 2 fold. For the same compound, the “fold improved water solubility compared to alkyl substituted inhibitors (4 or 6)” value in data set [2] is recorded as 20–45 fold.

Turning to `O=C(NC1CCCC(C(=O)O)C1)NC12CC3CC(CC(C3)C1)C2` (stereo not drawn) [Compound 10, 3-(3-adamantan-1-yl-ureido)-cyclohexylcarboxylic acid], the “Stability (% remaining)” value in data set [1] is 95 % remaining. In addition, the “parent acid determined after microsomal incubation” value in data set [1] (human liver microsomes) is given as greater than 95%.

As for `CCCCC(CC)OC(=O)C1CCCC(NC(=O)NC23CC4CC(CC(C4)C2)C3)C1` (stereo not drawn) [Compound 12], the “Stability (% remaining)” value in data set [1] is on record as 10 % remaining. In data set [1] (human liver microsomes), the “fold improved metabolic stability” value is 2.5 fold and the “fold lower stability” value came to 3 fold.

Regarding `CCOCCOCC(OC(=O)C1CCCC(NC(=O)NC23CC4CC(CC(C4)C2)C3)C1)c1ccccc1` (stereo not drawn) [Compound 13], the “Stability (% remaining)” value in data set [1] was found to be 32 % remaining. In addition, the “fold improved stability compared to compound 9” value in data set [1] (human liver microsomes, versus compound 9) is reported as roughly 2 fold. Further, the “fold improved water solubility compared to alkyl substituted inhibitors (4 or 6)” value in data set [2] was 20–45 fold.
